The nature of the test: cytotoxicity in HEK293 background cells – cell-based, dry powder, set 2, counter-screen for EBV LMP1 inhibitor project, dose response (AID 624374). The following applies: HEK293 viability counterscreen, plate reader. In general terms: Counterscreens check selectivity or assay interference.

Records with an inconclusive call do not appear. Activity calls are given as the source filed them. No rule for the calls is given here.

`C[C@@H](NC(=O)C[C@@H]1C=C[C@@H](NC(=O)Cc2ccccn2)[C@H](CO)O1)c1ccccc1`: under “at 35 µM (top of the series)”, the activity change, negative = viability loss is 5.06% (inactive).
The same measure, in the same setting: under `O=C(C[C@@H]1C[C@H]2c3cc(NC(=O)c4ccc5c(c4)OCO5)ccc3O[C@H]2[C@H](CO)O1)NC1CCCCC1` stands 2.89% (inactive).
Consider `CC(C)NC(=O)N1[C@H](CO)[C@H](c2ccc(C#CC3CCCCC3)cc2)[C@@H]1C#N`, for which the activity change, negative = viability loss (at 35 µM (top of the series)) is -6.23% (inactive).
Still for that read-out and setting: under `COc1cccc(S(=O)(=O)N(C)C[C@@H]2Oc3cc(C4=CCCCC4)ccc3S(=O)(=O)N([C@@H](C)CO)C[C@@H]2C)c1` stands -1.39% (inactive).
For the molecule `Cc1noc(C)c1S(=O)(=O)Nc1ccc2c(c1)C(=O)N([C@@H](C)CO)C[C@H](C)[C@H](CN(C)Cc1ccc(C(F)(F)F)cc1)OCCCC[C@@H](C)O2`, the activity change, negative = viability loss (at 30 µM (top of the series)) was 11.8% (inactive).
For `COc1ccc(-c2cccc(-c3nc(C(=O)NCC(F)(F)F)cc4c3[C@H](CCO)N([S@@](=O)C(C)(C)C)C4)c2)cc1`, where the note is “at 35 µM (top of the series)”, the activity change, negative = viability loss is -10.9% (inactive).
On to `C[C@@H]1CN([C@H](C)CO)C(=O)Cc2cc(NC(=O)Cc3ccccc3)ccc2O[C@@H]1CN(C)Cc1ccc(C(F)(F)F)cc1`, for which the activity change, negative = viability loss (at 35 µM (top of the series)) is 0.279% (inactive).
Still for that read-out and setting: under `C[C@@H](NC(=O)C[C@H]1C=C[C@H](NC(=O)Cc2ccccn2)[C@H](CO)O1)c1ccccc1` stands -7.68% (inactive); under `COc1ccccc1C#Cc1cnc2c(c1)C(=O)N([C@@H](C)CO)C[C@H](C)[C@@H](CN(C)C(=O)c1ccc3c(c1)OCO3)O2`, 9.4% (inactive).
On the same count and under the same terms, as for `Cc1noc(C)c1S(=O)(=O)Nc1ccc2c(c1)C(=O)N([C@H](C)CO)C[C@@H](C)[C@@H](CN(C)Cc1ccc(C(F)(F)F)cc1)OCCCC[C@@H](C)O2`, the figure is -10.4% (inactive).
On the same count and under the same terms, under `C[C@H](NC(=O)C[C@H]1C[C@@H]2c3cc(NC(=O)c4cccnc4)ccc3O[C@@H]2[C@@H](CO)O1)c1ccccc1` stands -6.5% (inactive); under `Cc1noc(C)c1S(=O)(=O)Nc1ccc2c(c1)C(=O)N([C@H](C)CO)C[C@@H](C)[C@H](CN(C)Cc1ccc(C(F)(F)F)cc1)OCCCC[C@@H](C)O2`, -3.71% (inactive).
For the molecule `COc1ccc(S(=O)(=O)N(C)C[C@@H]2Oc3ncc(/C=C/c4ccccc4)cc3C(=O)N([C@@H](C)CO)C[C@H]2C)cc1`, the activity change, negative = viability loss (at 35 µM (top of the series)) is 5.95% (inactive).
Same read-out and setting: as for `N#C[C@H]1[C@H](c2ccc(C#Cc3ccccc3F)cc2)[C@@H](CO)N1C(=O)c1cccnc1`, the figure is 4.46% (inactive).
Same read-out and setting: as for `CC(C)NC(=O)N1Cc2cc(C(=O)NC3Cc4ccccc4C3)nc(-c3cccc(-c4cccnc4)c3)c2[C@@H]1CCO`, the figure is 22.6% (inactive); as for `CC(C)NC(=O)N1Cc2cc(C(=O)NC3Cc4ccccc4C3)nc(-c3cccc(-c4cccnc4)c3)c2[C@H]1CCO`, 25.1% (inactive); as for `C[C@@H](NC(=O)C[C@@H]1C=C[C@H](NC(=O)Cc2ccccn2)[C@@H](CO)O1)c1ccccc1`, -2.91% (inactive).
The same measure, in the same setting: as for `Cc1noc(C)c1S(=O)(=O)Nc1ccc2c(c1)C(=O)N([C@H](C)CO)C[C@@H](C)[C@@H](CN(C)Cc1ccc(C(F)(F)F)cc1)OCCCC[C@H](C)O2`, the figure is -1.22% (inactive); as for `COc1cccc(S(=O)(=O)N(C)C[C@@H]2Oc3cc(C4=CCCCC4)ccc3S(=O)(=O)N([C@H](C)CO)C[C@H]2C)c1`, -0.785% (inactive); as for `COc1ccccc1C#Cc1ccc2c(c1)O[C@H](CN(C)Cc1cccnc1)[C@H](C)CN([C@@H](C)CO)S2(=O)=O`, -0.213% (inactive).
On to `Cc1noc(C)c1S(=O)(=O)Nc1ccc2c(c1)C(=O)N([C@@H](C)CO)C[C@@H](C)[C@H](CN(C)Cc1ccc(C(F)(F)F)cc1)OCCCC[C@@H](C)O2`, for which the activity change, negative = viability loss (at 35 µM (top of the series)) was -0.939% (inactive).
Still for that read-out and setting: as for `Cc1noc(C)c1S(=O)(=O)Nc1ccc2c(c1)C(=O)N([C@@H](C)CO)C[C@@H](C)[C@@H](CN(C)Cc1ccc(C(F)(F)F)cc1)OCCCC[C@@H](C)O2`, the figure is -11.2% (inactive); as for `C[C@@H](NC(=O)C[C@H]1C=C[C@@H](NC(=O)Cc2ccccn2)[C@@H](CO)O1)c1ccccc1`, 2.73% (inactive); as for `O=C(Nc1ccc(C(F)(F)F)cc1)Nc1ccc2c(c1)[C@@H]1C[C@H](CC(=O)N3CCc4ccccc4C3)O[C@H](CO)[C@@H]1O2`, -11.3% (inactive).
Consider `O=C(C[C@@H]1C[C@@H]2c3cc(NS(=O)(=O)c4ccc(F)cc4)ccc3O[C@@H]2[C@H](CO)O1)NC1CCCCC1`, for which, for the setting “at 35 µM (top of the series)”, the activity change, negative = viability loss is 6.32% (inactive).
The same measure, in the same setting: as for `Cc1noc(C)c1S(=O)(=O)Nc1ccc2c(c1)C(=O)N([C@H](C)CO)C[C@@H](C)[C@H](CN(C)Cc1ccc(C(F)(F)F)cc1)OCCCC[C@H](C)O2`, the figure is -6.47% (inactive).
On the same count and under the same terms, under `C[C@H]1CN([C@@H](C)CO)C(=O)c2c(c3ccccc3n2C)-c2ccccc2CO[C@@H]1CN(C)C(=O)Nc1ccc(F)cc1` stands 2.63% (inactive).
On the same count and under the same terms, under `COc1cccc(S(=O)(=O)N(C)C[C@H]2Oc3cc(C4=CCCCC4)ccc3S(=O)(=O)N([C@@H](C)CO)C[C@@H]2C)c1` stands 9.06% (inactive); under `C[C@@H]1CN([C@H](C)CO)C(=O)c2c(c3ccccc3n2C)-c2ccccc2CO[C@H]1CN(C)C(=O)Nc1ccc(F)cc1`, -13% (inactive).
For `COc1ccc(S(=O)(=O)N(C)C[C@H]2Oc3ncc(/C=C/c4ccccc4)cc3C(=O)N([C@H](C)CO)C[C@@H]2C)cc1`, under “at 35 µM (top of the series)”, the activity change, negative = viability loss was 13.6% (inactive).
Still for that read-out and setting: under `O=C(C[C@H]1C[C@@H]2c3cc(NC(=O)c4ccc5c(c4)OCO5)ccc3O[C@@H]2[C@@H](CO)O1)NCc1ccc(Oc2ccccc2)cc1` stands -3.98% (inactive).
With `O=C(C[C@@H]1C[C@@H]2c3cc(NC(=O)c4cccnc4)ccc3O[C@@H]2[C@H](CO)O1)NCC(F)(F)F`, the activity change, negative = viability loss (at 35 µM (top of the series)) is -0.478% (inactive).
The same measure, in the same setting: under `C[C@H]1CN([C@@H](C)CO)C(=O)c2cc(C#Cc3ccccc3F)cnc2O[C@@H]1CN(C)C(=O)C1CCCCC1` stands 7.95% (inactive); under `C[C@@H](NC(=O)C[C@H]1C=C[C@@H](NC(=O)Cc2ccccn2)[C@H](CO)O1)c1ccccc1`, -2.87% (inactive).
Same read-out and setting: under `C[C@H]1CN([C@@H](C)CO)C(=O)c2c(c3ccccc3n2C)-c2ccccc2CO[C@H]1CN(C)C(=O)Nc1ccc(F)cc1` stands -8.86% (inactive).
On the same count and under the same terms, as for `COc1ccccc1C#Cc1ccc([C@H]2[C@H](C#N)N(C(=O)C3CC3)[C@H]2CO)cc1`, the figure is 2.46% (inactive); as for `CC(C)(C)[S@@](=O)N1Cc2cc(C(=O)NCc3ccccn3)nc(-c3cccc(-c4ccccc4F)c3)c2[C@H]1CCO`, 2.2% (inactive).
`Cc1cc(C(=O)Nc2ccc3c(c2)C(=O)N(C)[C@H]2CC[C@H](CC(=O)NCc4ccc(-c5ccccc5)cc4)O[C@H]2CO3)no1`: the activity change, negative = viability loss (at 35 µM (top of the series)) was -11.4% (inactive).
The same measure, in the same setting: under `N#C[C@H]1N[C@H](CO)[C@H]1c1ccc(C#Cc2ccccc2F)cc1` stands -10.8% (inactive).

For the origin of these results see PubChem BioAssay AID624374 (Broad Institute, 2012).
